pIC50: −log10 of the molar value.
Experiments:
RAS-GTP in A549 cells = experiment: RAS-GTP pulldown (Raf-RBD); assay type: cell-based; settings: A549 (KRAS G12S), 6 hour and 24 hour
Method: (§1) To determine the effects of small molecules on levels of activated RAS-GTPase, cell lines of interest were cultured under standard 2D culture conditions. Cells were seeded and following overnight incubation incubated at 37° C. with vehicle (DMSO) or test article(s). After an appropriate incubation period, cells were washed and cell lysis buffer added to prepare a cell lysate. The levels of Ras-GTP in the lysates were determined using affinity purification of a Raf-RBD (Ras binding domain of Raf)/GTP-Ras complex. In one approach, the Pierce Active Ras Pulldown and Detection Kit was used. Briefly, clarified lysates (500 μg total protein, quantified by BCA) were mixed with glutathione resin which had been preincubated with GST-Raf-RBD. The mixture was vortexed and incubated at 4° C. for 1 hour with gentle rocking. The resin was washed three times with lysis buffer and bound Ras-GTP eluted by addition of 2× reducing sample buffer. Eluted proteins were separated by SDS-PAGE using a 4-15% Tris-glycine gel (BioRad). Proteins were transferred to a nitrocellulose membrane for western blot using an anti-Ras antibody (Thermofisher, 1:200) and a Licor IRDye-800 anti-mouse secondary antibody (1:20,000). The Licor Odyssey CLx was used for visualization.

SHP2 Tyr-542 and Tyr-580 = experiment: SHP2 tyrosine phosphorylation western blot; assay type: cell-based; settings: 5 μM, 1 hour; MEFs, HEK293, H358; EGF or PDGF stimulated
Method: Cells (MEFs, HEK 293E, H358) were plated in 6-well plates at a density of 750,000 cells/well in low serum (0.1% FBS) media and allowed to grow overnight. […] Cells were stimulated with 50 ng/mL of EGF or PDGF for 5 minutes, washed with cold PBS, and 150 μL of lysis buffer (Thermo #1862301) with Halt Protease/Phosphatase inhibitor (Thermo #78440) was added. Cells were scraped, transferred to a cold Eppendorf tube and vortexed for 10 seconds. Lysates were spun at 4 C for 15 min at 13,000 rpm and transferred to a new tube. Lysate protein concentration was assessed using the BCA assay. Lysates (30 μg/lane) were run on a 4-15% Tris glycine gel and transferred to a nitrocellulose membrane using the iBlot2. Western blots were performed using phospho-SHP2 antibodies from Cell Signaling Technologies; […] (#3751) and […] (#3703) were both used at 1:1000 dilution in 5% BSA in TBS. Membranes were incubated with primary antibody overnight with gentle shaking at 4 C. Beta actin antibody (Cell Signaling Technologies #8457, 1:2000) was used as a loading control. The secondary antibody (Licor IRDye 800 CW anti-rabbit) was used at a 1:20000 dilution in 5% BSA in TBS for 1 hour shaking at room temperature. Blots were visualized using the Licor Odyssey Clx Imager.

Cal-12T = experiment: 3D proliferation (CTG); assay type: cell-based; settings: Cal-12T (Class III BRAF G466V/+)
Method: (§3) To evaluate cell viability in 3D culture, cells in logarithmic growth phase were plated in growth medium containing 0.65% methylcellulose at an optimum seeding density. Cells were incubated overnight prior to treatment with different concentrations of the test article. Cells were cultured for an additional seven days and cell viability assessed using the CellTiterGlo™ (CTG) reagent, according to the manufacturer's instructions. In some instances, cells were grown in 3D culture as spheroids. Briefly, 2500 cells/well were seeded in round bottom ultra-low attachment 96-well plates (Corning) in growth media supplemented with 10% fetal bovine serum and 1% penicillin/streptomycin, and allowed to form spheroids for 72 hours at 37° C. in 5% CO2. […] Following drug exposure for five days, cell viability in spheroids was determined using the CellTiter-Glo assay kit. […] After one day in culture, cells were treated with the test article, which was then replenished every three days. Cells were maintained in culture for 10 days until the control wells reached confluency at which time the cells were fixed and stained with crystal violet.

pERK in NCI-H1838 cells = experiment: p-ERK AlphaLisa SureFire; assay type: cell-based; settings: for p-ERK: NCI-H1838 (NF1 LOF)
Method: (§2) Cells were plated at ˜20×10^3 cells per well and following overnight incubation were washed with serum-free media. Cells were then incubated for one hour with increasing concentrations of the test article in serum-free media containing 0.2% BSA prior to termination of the assay and measurement of pERK levels in cellular lysates by AlphaLisa SureFire Ultra kit conducted according to the manufacturer's instructions.

NCI-H508 = experiment: 3D proliferation (CTG); assay type: cell-based; settings: NCI-H508 (Class III BRAF G596R/+)
Method: (§4) To evaluate cell viability in 3D culture, cells in logarithmic growth phase were plated in growth medium containing 0.65% methylcellulose at an optimum seeding density. Cells were incubated overnight prior to treatment with different concentrations of the test article. Cells were cultured for an additional seven days and cell viability assessed using the CellTiterGlo™ (CTG) reagent, according to the manufacturer's instructions. In some instances, cells were grown in 3D culture as spheroids. Briefly, 2500 cells/well were seeded in round bottom ultra-low attachment 96-well plates (Corning) in growth media supplemented with 10% fetal bovine serum and 1% penicillin/streptomycin, and allowed to form spheroids for 72 hours at 37° C. in 5% CO2. […] Following drug exposure for five days, cell viability in spheroids was determined using the CellTiter-Glo assay kit.

A375 cells = experiment: 3D proliferation (CTG); assay type: cell-based; settings: A375 (Class I BRAF V600E), 3D culture
Method: as §4

[1] = test system: RAS-GTP in NCI-H1838 cells; experiment: RAS-GTP pulldown (Raf-RBD); assay type: cell-based; settings: NCI-H1838 (NF1 LOF)
Method: as §1, with “glutathione resin,” for “glutathione resin”
as §1

RAS-GTP in H358 cells = experiment: RAS-GTP pulldown (Raf-RBD); assay type: cell-based, human
Method: as §1, with “glutathione resin,” for “glutathione resin”, “buffer. […]” for “buffer. Eluted proteins were separated by SDS-PAGE using a 4-15% Tris-glycine gel (BioRad). Proteins were transferred to a nitrocellulose membrane for western blot using an anti-Ras antibody (Thermofisher, 1:200) and a Licor IRDye-800 anti-mouse secondary antibody (1:20,000). The Licor Odyssey CLx was used for visualization.”
To determine the effects of small molecules on levels of activated RAS-GTPase, cell lines of interest were cultured under standard 2D culture conditions. […] The levels of Ras-GTP in the lysates were determined using affinity purification of a Raf-RBD (Ras binding domain of Raf)/GTP-Ras complex. […] Briefly, clarified lysates (500 μg total protein, quantified by BCA) were mixed with glutathione resin which had been preincubated with GST-Raf-RBD. […]

p-ERK1/2 in H358 cells = experiment: p-ERK AlphaLisa SureFire; assay type: cell-based, human; settings: H358 cells (KRAS G12C)
Method: as §2

Calu-6 = experiment: 3D cell viability (CTG); assay type: cell-based; settings: Homo sapiens; Calu-6, KRAS Q61K, 3D culture
Method: as §4

NCI-H1373 = experiment: 3D cell viability (CTG); assay type: cell-based; settings: Homo sapiens; NCI-H1373, KRAS G12C, 3D culture
Method: as §3

ASPC-1 = experiment: 3D cell viability (CTG); assay type: cell-based; settings: Homo sapiens, ASPC1; ASPC-1, KRAS G12D, 3D culture
Method: as §4

SW620 = experiment: 3D cell viability (CTG); assay type: cell-based; settings: Homo sapiens, SW-620; SW620, KRAS G12V, 3D culture
Method: as §3

LS513 = experiment: 3D cell viability (CTG); assay type: cell-based; settings: Homo sapiens, LS-513; LS513, KRAS G12D, 3D culture
Method: as §4

HPAC = experiment: 3D cell viability (CTG); assay type: cell-based; settings: Homo sapiens, KRAS G12D, 3D culture
Method: as §4

SNU-668 = experiment: 3D cell viability (CTG); assay type: cell-based; settings: SNU668; SNU-668, KRAS Q61K, 3D culture
Method: as §4

LoVo = experiment: 3D cell viability (CTG); assay type: cell-based; settings: Homo sapiens, KRAS G13D, 3D culture
Method: as §3

For `Cc1nc(N2CCC3(CC2)CO[C@@H](C)[C@H]3N)c(CO)nc1-c1cccc(Cl)c1Cl` [Compound B], the “RAS-GTP accumulation resulting from MEK inhibition by trametinib” value (RAS-GTP in A549 cells) was “suppressed”, the “phosphorylation levels of SHP2 Y580” value (SHP2 Tyr-542 and Tyr-580) was “decreases” and the proliferation (Cal-12T) was “suppression”. For the same molecule, the pIC50 (pERK in NCI-H1838 cells; Homo sapiens, NCI-H1838, 1 h, read-out: geometric mean IC50 for reduction in pERK) was 7.54, the p-ERK (pERK in NCI-H1838 cells) was “suppression” and the proliferation (NCI-H508) was “suppression”. The proliferation (A375 cells) was “failed to suppress”, the RAS-GTP levels [1] was “downregulation” and the “RAS-GTP accumulation resulting from MEK inhibition by trametinib” value (RAS-GTP in H358 cells; H358 (KRAS G12C), 6 hour and 24 hour) was “suppressed”. The “inhibition of p-ERK1/2 levels” value (p-ERK1/2 in H358 cells) was “concentration-dependent inhibition”.

With `Nc1nc(N2CCC3(CCC[C@H]3N)CC2)cnc1Sc1ccnc(Cl)c1Cl` [Compound A] the IC50 (Calu-6) was over 10 µM, the IC50 (NCI-H1373) was 1.3 µM and the IC50 (ASPC-1) was over 10 µM. For the same molecule, the p-ERK (pERK in NCI-H1838 cells) was “potently inhibited”, the IC50 (SW620) was over 10 µM and the IC50 (LS513) was 0.1 µM. For the same molecule, the RAS-GTP levels [1] was “inhibited”, the “feedback-driven RAS-GTP accumulation” value ([1]; MEK inhibition by trametinib) was “suppressed this effect” and the IC50 (HPAC) was over 10 µM. The “Ras activation (levels of Ras-GTP)” value (RAS-GTP in H358 cells; H358 cells) was “inhibited”, the IC50 (SNU-668) was over 10 µM and the “inhibition of p-ERK1/2 levels” value (p-ERK1/2 in H358 cells) was “concentration-dependent inhibition”. The IC50 (LoVo) was over 10 µM.

Source: patent US11596633B2, “SHP2 inhibitor compositions and methods for treating cancer” (Revolution Medicines, Inc., priority 2017, dated 2023)
